Laboratory results from patent US6706740B2, “Fungicidal heterocyclic aromatic amides and their compositions, methods of use and preparation” (Dow AgroSciences LLC, priority 1999, dated 2004).
Like-named read-outs stand apart in the source and are kept apart here.

Experiments:
[1] = test system: Magnaporthe grisea (Pyricularia oryzae—PYRIOR); assay: microbe, parasite or virus in culture; format: cell-based; conditions: Pyricularia oryzae, read-out: PYRIOR in vitro Growth Inhibition
[2] = test system: Rhizoctonia solani (RHIZSO); assay: microbe, parasite or virus in culture; format: cell-based; conditions: Rhizoctonia solani, read-out: RHIZSO in vitro Growth Inhibition
[3] = test system: Mycosphaerella graminicola (Septoria tritici—SEPTTR); assay: In vitro fungal growth inhibition, Mycosphaerella graminicola (SEPTTR); format: cell-based; conditions: Zymoseptoria tritici, read-out: SEPTTR in vitro Growth Inhibition
[4] = test system: Stagonospora nodorum (Leptosphaeria nodorum—LEPTNO); assay: In vitro fungal growth inhibition, Stagonospora nodorum (LEPTNO); format: cell-based; conditions: Leptosphaeria, read-out: LEPTNO in vitro Growth Inhibition
Ustilago maydis (USTIMA) = assay: microbe, parasite or virus in culture; format: cell-based; conditions: Mycosarcoma maydis, read-out: USTIMA in vitro Growth Inhibition
[5] = test system: Phytophthora infestans (PHYTIN); assay: microbe, parasite or virus in culture; format: cell-based; conditions: Phytophthora infestans, read-out: PHYTIN in vitro Growth Inhibition
[6] = test system: Phytophthora infestans—PHYTIN; assay: whole plant or invertebrate; format: in vivo; conditions: Phytophthora, in Solanum lycopersicum, 24 h, read-out: PHYTIN in vivo 1 Day Protectant
[7] = test system: Puccinia recondita—PUCCRT; assay: Brown Rust of Wheat, in vivo whole plant, 24 Hour Protectant; conditions: control of fungal infection vs untreated plants; for pest or weed control at 100 ppm: Puccinia, read-out: PUCCRT in vivo 1 Day Protectant
Erysiphe graminis—ERYSGT = assay: Powdery Mildew of Wheat, in vivo whole plant, 24 Hour Protectant; conditions: control of fungal infection vs untreated plants; for pest or weed control at 100 ppm: Erysiphe, read-out: ERYSGT in vivo 1 Day Protectant
Septoria tritici—SEPTTR = assay: Leaf Blotch of Wheat, in vivo whole plant, 24 Hour Protectant; conditions: control of fungal infection vs untreated plants; for pest or weed control at 100 ppm: Zymoseptoria tritici, 24 h, read-out: SEPTTR in vivo 1 Day Protectant
[8] = test system: Leptosphaeria nodorum—LEPTNO; assay: Glume Blotch of Wheat, in vivo whole plant, 24 Hour Protectant; conditions: control of fungal infection vs untreated plants; for pest or weed control at 100 ppm: Leptosphaeria, read-out: LEPTNO in vivo 1 Day Protectant
[9] = 100 ppm spray, wheat, 24 hour protectant
[10] = 100 ppm spray, 24 hour protectant, wheat
[11] = wheat plants sprayed at 100 ppm, inoculated after 24 hours

| SMILES | inhibition at 25 ppm [1] | inhibition at 25 ppm [2] | inhibition at 25 ppm ([3]; 25 ppm in growth medium) | inhibition at 25 ppm ([4]; 25 ppm in growth medium) | inhibition at 25 ppm (Ustilago maydis (USTIMA)) | inhibition at 25 ppm [5] | pest or weed control at 100 ppm [6] | pest or weed control at 100 ppm [7, 9] | pest or weed control at 100 ppm (Erysiphe graminis—ERYSGT; [9]) | pest or weed control at 100 ppm (Septoria tritici—SEPTTR; [9]) | pest or weed control at 100 ppm [8, 9] | further results |
| --- | --- | --- | --- | --- | --- | --- | --- | --- | --- | --- | --- | --- |
| COc1ccnc(C(=O)Nc2cccc(Oc3cccc(C)c3)c2)c1O [Compound 413] | > 80% | < 80% | > 80% | > 80% | < 80% | < 80% | 25 to 74% | 25 to 74% | < 25% | < 25% | < 25% | – |
| COc1ccnc(C(=O)NCC#Cc2ccccc2)c1O [Compound 240] | < 80% | < 80% | < 80% | < 80% | < 80% | < 80% | < 25% | – | – | – | – | pest or weed control at 100 ppm [7, 10]: < 25%; pest or weed control at 100 ppm (Erysiphe graminis—ERYSGT; [10]): < 25%; SEPTTR in vivo 1 Day Protectant (Septoria tritici—SEPTTR; [10]): + +; pest or weed control at 100 ppm [8, 10]: 25 to 74% |
| COc1ccnc(C(=O)Nc2cc(C)c(OC(=O)C(C)C)c(C)c2)c1O [Compound 455] | < 80% | < 80% | < 80% | > 80% | > 80% | < 80% | < 25% | < 25% | < 25% | 25 to 74% | 25 to 74% | – |
| CC(NC(=O)c1ccncc1O)c1ccc(Cl)cc1 (centres unmarked) [Compound 509] | < 80% | < 80% | – | – | < 80% | < 80% | < 25% | – | – | – | – | inhibition at 25 ppm ([3]; 25 ppm in the growth medium): < 80%; inhibition at 25 ppm ([4]; 25 ppm in the growth medium): < 80%; pest or weed control at 100 ppm [7, 11]: < 25%; pest or weed control at 100 ppm (Erysiphe graminis—ERYSGT; [11]): < 25%; pest or weed control at 100 ppm (Septoria tritici—SEPTTR; [11]): < 25%; pest or weed control at 100 ppm [8, 11]: < 25% |
| COc1ccnc(C(=O)NC2CC(C)(C)CC(C)(C3CC3)C2)c1OC(C)=O (centres unmarked) [Compound 573] | < 80% | < 80% | – | – | < 80% | < 80% | < 25% | – | – | – | – | inhibition at 25 ppm ([3]; 25 ppm in the growth medium): < 80%; inhibition at 25 ppm ([4]; 25 ppm in the growth medium): > 80%; PUCCRT in vivo 1 Day Protectant [7, 11]: + +; pest or weed control at 100 ppm (Erysiphe graminis—ERYSGT; [11]): < 25%; pest or weed control at 100 ppm (Septoria tritici—SEPTTR; [11]): 25 to 74%; LEPTNO in vivo 1 Day Protectant [8, 11]: + + |
| COC(=O)C(COC(=O)CCc1ccccc1)NC(=O)c1nccc(OC)c1OC(C)=O (centres unmarked) [Compound 583] | < 80% | < 80% | – | – | < 80% | < 80% | < 25% | – | – | – | – | inhibition at 25 ppm ([3]; 25 ppm in the growth medium): < 80%; inhibition at 25 ppm ([4]; 25 ppm in the growth medium): < 80%; pest or weed control at 100 ppm [7, 11]: < 25%; pest or weed control at 100 ppm (Erysiphe graminis—ERYSGT; [11]): < 25%; pest or weed control at 100 ppm (Septoria tritici—SEPTTR; [11]): < 25%; pest or weed control at 100 ppm [8, 11]: 25 to 74% |
| C[C@@H](NC(=O)c1ncccc1O)c1cccc2ccccc12 [Compound 231] | > 80% | < 80% | < 80% | < 80% | < 80% | < 80% | < 25% | – | – | – | – | pest or weed control at 100 ppm [7, 10]: < 25%; pest or weed control at 100 ppm (Erysiphe graminis—ERYSGT; [10]): < 25%; pest or weed control at 100 ppm (Septoria tritici—SEPTTR; [10]): < 25%; pest or weed control at 100 ppm [8, 10]: < 25% |
| CCC1(C)OCC(NC(=O)c2nccc(OC)c2O)CO1 (centres unmarked) [Compound 314] | < 80% | < 80% | < 80% | < 80% | < 80% | < 80% | < 25% | – | – | – | – | pest or weed control at 100 ppm [7, 10]: < 25%; pest or weed control at 100 ppm (Erysiphe graminis—ERYSGT; [10]): < 25%; pest or weed control at 100 ppm (Septoria tritici—SEPTTR; [10]): < 25%; pest or weed control at 100 ppm [8, 10]: 25 to 74% |
| CC(=O)Oc1cccnc1C(=O)Nc1ccc(Oc2cccc(C(F)(F)F)c2)cc1 [Compound 570] | > 80% | < 80% | – | – | < 80% | < 80% | < 25% | – | – | – | – | inhibition at 25 ppm ([3]; 25 ppm in the growth medium): < 80%; inhibition at 25 ppm ([4]; 25 ppm in the growth medium): < 80%; pest or weed control at 100 ppm [7, 11]: < 25%; ERYSGT in vivo 1 Day Protectant (Erysiphe graminis—ERYSGT; [11]): + +; pest or weed control at 100 ppm (Septoria tritici—SEPTTR; [11]): 25 to 74%; pest or weed control at 100 ppm [8, 11]: 25 to 74% |
| CO/N=C(/c1ccc(NC(=O)c2nccc(OC)c2O)cc1)c1cccc(C(F)(F)F)c1 [Compound 408] | < 80% | < 80% | < 80% | > 80% | < 80% | < 80% | < 25% | < 25% | 25 to 74% | 25 to 74% | 25 to 74% | – |
| CCCCCCCCCNC(=O)c1ncccc1O [Compound 201] | > 80% | < 80% | < 80% | < 80% | < 80% | < 80% | < 25% | – | – | – | – | pest or weed control at 100 ppm [7, 10]: < 25%; pest or weed control at 100 ppm (Erysiphe graminis—ERYSGT; [10]): < 25%; pest or weed control at 100 ppm (Septoria tritici—SEPTTR; [10]): < 25%; pest or weed control at 100 ppm [8, 10]: < 25% |
| COc1ccnc(C(=O)Nc2cccc(Oc3ccc(Cl)cc3)c2)c1O [Compound 440] | > 80% | < 80% | > 80% | > 80% | < 80% | < 80% | < 25% | 25 to 74% | < 25% | 25 to 74% | – | LEPTNO in vivo 1 Day Protectant [8, 9]: + + |
| COc1ccnc(C(=O)Nc2ccc(Oc3ccc(Cl)cc3)cc2)c1O [Compound 443] | < 80% | < 80% | < 80% | > 80% | < 80% | < 80% | < 25% | 25 to 74% | < 25% | < 25% | < 25% | – |
| COc1ccc(Oc2cccc(NC(=O)c3nccc(OC)c3O)c2)cc1 [Compound 432] | < 80% | < 80% | > 80% | > 80% | < 80% | < 80% | < 25% | 25 to 74% | < 25% | < 25% | 25 to 74% | – |
| COc1ccnc(C(=O)Nc2ccc(OCc3cccc(C(F)(F)F)c3)cc2)c1O [Compound 447] | < 80% | < 80% | < 80% | < 80% | < 80% | < 80% | < 25% | < 25% | < 25% | < 25% | 25 to 74% | – |
| COC(=O)C(COC(=O)C(C)Cc1ccccc1)NC(=O)c1nccc(OC)c1O (centres unmarked) [Compound 345] | < 80% | < 80% | < 80% | < 80% | < 80% | < 80% | < 25% | 25 to 74% | < 25% | < 25% | < 25% | – |
